Experimental data: PMC11653243, “Enhancing Phototoxicity in BODIPY‐Perylene Charge Transfer Dyads by Combined Iodination and Mesylation” (Chemistry (Weinheim an Der Bergstrasse, Germany), 2024)
Several values for one entry are separate records, joined by “and”; a condition that tells them apart may be missing. Equal entries are not always repeated.

Experiments:
[1] = DPBF singlet oxygen (ROS) scavenger assay in methanol; conditions: 470 nm LED, t=210 seconds relative to t=0, 10 mM DPBF in methanol, absorbance matched
Description: Given the impact of the heavy iodine atom on phototoxicity, to confirm if the origin of toxicity is triplet sensitised formation of ^1O2 we carried out ROS scavenger studies with 1,3‐diphenylisobenzofuran (DPBF, Figure 6C). Stock solutions of BODIPY‐perylene were prepared under absorbance matched conditions and a BODIPY‐DPBF solution prepared at concentration of 10 mM DPBF in methanol. The BODIPY‐DPBF solution was irradiated (470 nm) from 0–210 seconds and the absorption spectra recorded every 30 seconds. In the presence of ^1O2, DPBF forms an unstable peroxide, endoperoxide 1, that readily decomposes to colourless 1,2‐dibenzoylbenzene (DBB).[51] This change is detected spectrophotometrically with depletion of DPBF absorbance at 410 nm. The DPBF assay results are represented in Figure 6C as % decrease in absorbance at 410 nm. The values are determined at t=210 seconds relative to the absorbance values recorded prior to irradiation at t=0. […] As expected, the most phototoxic compound, MB2PI, generates the most ^1O2 upon irradiation with a 470 nm LED with a 52 % decrease in DPBF absorbance at 410 nm. […] DPBF is known to be sensitive to light, therefore, to mitigate photodegradation of affecting the assay results, exposure was limited to 3.5 minutes where DPBF absorbance decrease at 410 nm is <10 % at this time point. […] Due to the photo‐vulnerability of DPBF under visible irradiation, this study is limited by a short experimental window and ignores any ROS generation over longer irradiation periods. […]
Figure 6 ROS dye H2DCFDA (A) prior to irradiation and (B) after 5 minutes of continuous irradiation confirming ROS generation. […] A graph of ROS scavenger DPBF response to irradiation of the BODIPY‐perylene compounds is shown in (C) where a decrease in absorbance at 410 nm confirms ^1O2 generation upon photoactivation. Studies were performed with the BODIPY‐perylene compounds under absorbance matched conditions. Values shown indicate the % decrease in absorbance values recorded at t=0 and t=210 seconds and is reported as mean±standard deviation. […]
To assess singlet oxygen (1O2) production and determine if the phototoxicity of our BODIPY complexes was caused by the generation of reactive oxygen species (ROS), a 1O2 scavenger study was completed using 1,3-diphenylisobenzofuran (DPBF). A 20 mM solution of DPBF in methanol was prepared, and stocks of the BODIPY-perylene compounds in DMSO were prepared under absorbance matched concentrations, starting at a 30 µM concentration of each. Test solutions of 1:1, DPBF: BODIPY in methanol (final concentration of 10 mM DPBF) were added to a clear 96 well plate (Nunc) and absorbance was measured using a BMG LABTECH CLARIOstar plate reader. […]

MCF‐7 cells = experiment: Cellular uptake and co-localisation by confocal microscopy; format: cell-based; conditions: ER Tracker 1 µM, 45 min
Description: The intracellular uptake of the BODIPY derivatives was assessed in two mammalian cell lines, CHO (non‐cancer) and MCF‐7 (cancer). […] B2P and B2PI were studied following 4 h and 17 h incubation in MCF‐7 cells with 10 μM of each BODIPY derivative. A 17 h incubation was selected to allow for adequate cell uptake of the complex, ensuring sufficient brightness for confocal imaging while minimising cell toxicity.
Across all four compounds uptake of the BODIPYs led to extremely bright and highly punctate staining from within the cells. As all of the BODIPY‐perylene probes emit minimally from aqueous media including cell culture media (Figure S20) the bright emission is attributed to localisation of the complex to non‐aqueous domains, i. e. organelle membranes or to lipid droplets (LDs). To identify which, co‐localisation studies with targeted probes were completed. CHO and MCF‐7 cells were treated with B2P, B2PI, MB2P or MB2PI and co‐stained with specific organelle markers including LD probes; PyLa−C17Cer and BODIPY 493/503, an endoplasmic reticulum stain; ER Tracker Blue‐White and a lysosomal stain; LysoTracker Deep Red. Pyla‐C17Cer was previously published and localises in both the ER and LDs.[41] Cellular uptake of B2PI was recently reported in MCF‐7 cells, though localisation was not explored.[25]
MCF‐7 and CHO cells were treated with B2P, MB2P, B2PI or MB2PI for 17 h and co‐stained with a number of dyes for co‐staining including LysoTracker Deep Red, ER Tracker Blue/White, PyLa−C17Cer, BODIPY 493/503 and H2DCFDA. Cells were imaged in phenol red free media using a Leica DMi8 confocal microscope with a 63x or 100x oil immersion lens and a heated state at 37 °C.
Uptake in Live Cell Monolayers
CHO cells were incubated in 75cm2 cell culture flasks (Corning) with DMEM/F-12 Ham medium (Sigma-Aldrich) with L-glutamine and sodium bicarbonate supplemented with 10% fetal bovine serum (FBS) (Gibco) and 1% penicillin-streptomycin (Sigma-Aldrich). MCF-7 cells were incubated in 25cm2 cell culture flasks with RPMI-1640 medium (Sigma-Aldrich) with L-glutamine and sodium bicarbonate supplemented with 10% fetal bovine serum (FBS, Gibco) and 1% penicillin-streptomycin. Cells were incubated at 37 °C with 5% CO2 and detached from the flask at 90% confluency using a 1X Trypsin-EDTA solution (Sigma-Aldrich). Cells were counted using the EVE automated cell counter (NanoEnTek) and seeded at 1 x 10^5 cells per mL in a 4 or 8 chamber µ-slide (ibidi) for cell imaging and left for 24 h at 37 °C. Cells were rinsed with 1X PBS (Gibco) and stained with B2P or B2PI at 10 µM and MB2P or MB2PI at 30 µM for 17 h. Cells were washed twice with PBS and covered with phenol red free RPMI medium (Gibco) for imaging. […]

Row | SMILES | decrease in DPBF absorbance at 410 nm [1] [%] | Pearson Coefficient (r) with ER Tracker Blue/White (MCF‐7 cells)
1 | CC1=C(I)C(C)=[N+]2C1=C(c1ccccc1)c1c(C)c(-c3ccc4c5cccc6cccc(c7cccc3c74)c65)c(C)n1[B-]2(F)F [B2PI] | 31 | 0.19 ± 0.05
2 | CC1=CC(C)=[N+]2C1=C(c1ccccc1)c1c(C)c(-c3ccc4c5cccc6cccc(c7cccc3c74)c65)c(C)n1[B-]2(F)F [B2P] | 8 | 0.14 ± 0.07
3 | CC1=C(c2ccc3c4cccc5cccc(c6cccc2c63)c54)C(C)=[N+]2C1=C(c1c(C)cc(C)cc1C)c1c(C)c(I)c(C)n1[B-]2(F)F [MB2PI] | 52 | 0.53 ± 0.04 and ~0.5
4 | CC1=C(c2ccc3c4cccc5cccc(c6cccc2c63)c54)C(C)=[N+]2C1=C(c1c(C)cc(C)cc1C)c1c(C)cc(C)n1[B-]2(F)F [MB2P] | 6 | 0.54 ± 0.04 and ~0.5
